# Test results taken from ChEMBL document CHEMBL1955743, “Potent inhibitors of LpxC for the treatment of Gram-negative infections” (J Med Chem, 2012).
# Assays:
# [1] = biological target: T1, UDP-3-O-acyl-N-acetylglucosamine deacetylase (Pseudomonas aeruginosa (strain ATCC 15692 / PAO1 / 1C / PRS 101 / LMG12228), UniProt P47205); test: Inhibition of Pseudomonas aeruginosa LpxC using UDP-3-O-(R-hydroxydecanoyl)-N-acetylglucosamine incubated for 30 mins prior to substrate addition measured after 60 mins by mass spectrophotometry
# T1 sequence (P47205 whole entry): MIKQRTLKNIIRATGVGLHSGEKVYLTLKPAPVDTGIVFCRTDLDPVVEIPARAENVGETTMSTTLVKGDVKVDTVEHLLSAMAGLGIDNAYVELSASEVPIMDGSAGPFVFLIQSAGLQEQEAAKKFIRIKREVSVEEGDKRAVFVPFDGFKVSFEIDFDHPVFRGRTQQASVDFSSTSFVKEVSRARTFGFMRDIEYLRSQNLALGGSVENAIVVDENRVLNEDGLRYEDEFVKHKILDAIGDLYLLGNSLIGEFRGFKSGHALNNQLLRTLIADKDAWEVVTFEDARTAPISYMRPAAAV
# Pseudomonas aeruginosa [2] = test: Antibacterial activity against Pseudomonas aeruginosa PAO1 after 16 to 20 hrs by broth microdilution method; type: functional
# Staphylococcus aureus = test: Antibacterial activity against Staphylococcus aureus ATCC 29213 after 16 to 20 hrs by broth microdilution method; type: functional
# [3] = Clearance in rat at 10 mg/kg, iv; type: ADME, organism-based; set-up: dose 10 mg/kg, route intravenous; settings: in vivo
# [4] = Volume of distribution at steady state in rat at 10 mg/kg, iv; type: ADME, organism-based; set-up: dose 10 mg/kg, route intravenous; settings: in vivo, read-out: Vdss
# [5] = AUC in rat at 10 mg/kg, iv; type: ADME, organism-based; set-up: dose 10 mg/kg, route intravenous; settings: plasma
# [6] = Half life in rat at 10 mg/kg, iv; type: ADME, organism-based; set-up: dose 10 mg/kg, route intravenous; settings: in vivo
# Pseudomonas aeruginosa [7] = test: Antibacterial activity against Pseudomonas aeruginosa clinical isolates after 16 to 20 hrs by broth microdilution method; type: functional
# Pseudomonas aeruginosa [8] = test: Antibacterial activity against Pseudomonas aeruginosa after 16 to 20 hrs by broth microdilution method; type: functional
# Klebsiella pneumoniae = test: Antibacterial activity against Klebsiella pneumoniae after 16 to 20 hrs by broth microdilution method; type: functional
# Escherichia coli = test: Antibacterial activity against Escherichia coli after 16 to 20 hrs by broth microdilution method; type: functional
# Klebsiella aerogenes = test: Antibacterial activity against Enterobacter aerogenes after 16 to 20 hrs by broth microdilution method; type: functional
# Citrobacter freundii = test: Antibacterial activity against Citrobacter freundii after 16 to 20 hrs by broth microdilution method; type: functional
# Acinetobacter baumannii = test: Antibacterial activity against Acinetobacter baumannii after 16 to 20 hrs by broth microdilution method; type: functional
IC50 [1],MIC (Pseudomonas aeruginosa [2]),MIC (Staphylococcus aureus),SMILES,further results
> 67.9 nM,64 µg/mL,32 µg/mL,CC(CCc1ccc(-c2ccccc2)cc1)(C(=O)NO)S(=O)(=O)c1ccccc1 (racemic),–
> 100 nM,16 µg/mL,> 64 µg/mL,COc1ccc(CCC(C)(C(=O)NO)S(C)(=O)=O)cc1 (racemic),–
> 92.5 nM,> 64 µg/mL,64 µg/mL,O=C(NO)C1(CCc2ccc(-c3ccccc3)cc2)CCCS1(=O)=O (racemic),–
1.36 nM,0.125 µg/mL,32 µg/mL,C[C@@](CCc1ccc(-c2ccccc2F)cc1)(C(=O)NO)S(C)(=O)=O,–
92.7 nM,> 64 µg/mL,> 64 µg/mL,CC(CCc1ccc(OCc2cc[n+]([O-])cc2)cc1)(C(=O)NO)S(C)(=O)=O (racemic),–
> 100 nM,> 64 µg/mL,> 64 µg/mL,C[C@@](CCc1ccc(-c2ccccc2C(N)=O)cc1)(C(=O)NO)S(C)(=O)=O,–
12.9 nM,1 µg/mL,> 64 µg/mL,C[C@@](CCc1ccc(-c2ccc(CN)cc2)cc1)(C(=O)NO)S(C)(=O)=O,–
10.1 nM,4 µg/mL,64 µg/mL,CC(CCc1ccc(OC2CCCC2)cc1)(C(=O)NO)S(C)(=O)=O (racemic),–
13.8 nM,1 µg/mL,> 64 µg/mL,CS(=O)(=O)C(CCc1ccc(-c2ccccc2)cc1)C(=O)NO (racemic),–
1.74 nM,0.25 µg/mL,> 64 µg/mL,C[C@@](CCc1ccc(-c2ccc(F)cc2)cc1)(C(=O)NO)S(C)(=O)=O,MIC90 (Pseudomonas aeruginosa [8]): 1 µg/mL; MIC90 (Klebsiella pneumoniae): 8 µg/mL; MIC90 (Escherichia coli): 1 µg/mL; MIC90 (Klebsiella aerogenes): 2 µg/mL; MIC90 (Citrobacter freundii): 4 µg/mL; MIC90 (Acinetobacter baumannii): 32 µg/mL

# Second part, the compound before the results:
SMILES,IC50 [1],MIC (Pseudomonas aeruginosa [2]),MIC (Staphylococcus aureus),further results
CC(COc1ccc(-c2ccccc2)cc1)(C(=O)NO)S(C)(=O)=O (racemic),31.4 nM,4 µg/mL,> 64 µg/mL,–
CC(C)c1cccc(-c2ccc(CC[C@](C)(C(=O)NO)S(C)(=O)=O)cc2)c1,6.78 nM,8 µg/mL,32 µg/mL,–
C[C@@](CCc1ccc(-c2cccnc2)cc1)(C(=O)NO)S(C)(=O)=O,29.7 nM,4 µg/mL,> 64 µg/mL,–
COc1ccccc1-c1ccc(CC[C@](C)(C(=O)NO)S(C)(=O)=O)cc1,7.04 nM,1 µg/mL,> 64 µg/mL,–
C[C@@](CCc1ccc(-c2cccc(Cl)c2)cc1)(C(=O)NO)S(C)(=O)=O,3.54 nM,0.5 µg/mL,32 µg/mL,–
C[C@@](CCc1ccc(-c2ccc(O)cc2)cc1)(C(=O)O)S(C)(=O)=O,> 92.5 nM,> 64 µg/mL,> 64 µg/mL,clearance [3]: 15 mL/min/kg; Vd [4]: 0.4 L/kg; AUC [5]: 10900 ng·h/mL; half-life [6]: 42 min
CC(C)(O/N=C(\C(=O)N[C@@H]1C(=O)N2C(C(=O)[O-])=C(C[n+]3ccccc3)CS[C@H]12)c1csc(N)n1)C(=O)O [CEFTAZIDIME],–,–,–,MIC50 (Pseudomonas aeruginosa [7]): 16 µg/mL; MIC90 (Pseudomonas aeruginosa [7]): > 64 µg/mL
CC(CCc1ccc(-c2ccc(OCCCN)cc2)cc1)(C(=O)NO)S(C)(=O)=O (racemic),12.7 nM,2 µg/mL,> 64 µg/mL,–
CC(CCc1ccc(-c2ccc(OCCCNC(=N)N)cc2)cc1)(C(=O)NO)S(C)(=O)=O (racemic),9.49 nM,32 µg/mL,32 µg/mL,–
C[C@@H](O)[C@H](NC(=O)c1ccc(C#Cc2ccc(CN3CCOCC3)cc2)cc1)C(=O)NO,–,1 µg/mL,> 64 µg/mL,MIC90 (Pseudomonas aeruginosa [8]): 4 µg/mL; MIC90 (Klebsiella pneumoniae): 2 µg/mL; MIC90 (Escherichia coli): 0.25 µg/mL; MIC90 (Klebsiella aerogenes): 0.5 µg/mL; MIC90 (Citrobacter freundii): 0.5 µg/mL; MIC90 (Acinetobacter baumannii): > 64 µg/mL
C[C@@](CCc1ccc(-c2ccc(OCCCN3CCOCC3)cc2)cc1)(C(=O)NO)S(C)(=O)=O,–,2 µg/mL,> 64 µg/mL,MIC90 (Pseudomonas aeruginosa [8]): 4 µg/mL; MIC90 (Klebsiella pneumoniae): 4 µg/mL; MIC90 (Escherichia coli): 0.5 µg/mL; MIC90 (Klebsiella aerogenes): 1 µg/mL; MIC90 (Citrobacter freundii): 1 µg/mL; MIC90 (Acinetobacter baumannii): > 64 µg/mL
